Measured values from patent publication US9453026B2, “ACC inhibitors and uses thereof” (Gilead Apollo, Inc., priority 2011, dated 2016).

How the values were obtained:
[1] = molecular target: ACC2 (Homo sapiens, UniProt O00763); assay: In vitro ACC2 inhibition assay (ADP-Glo); type: biochemical; conditions: read-out: ACC2
Outline: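 Enzyme (human ACC1 or ACC2) and compound, serially diluted 1:3 over 11 points from a 600 uM DMSO stock, were preincubated 15 min before substrate addition.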

[2] = molecular target: ACC1 (Homo sapiens, UniProt Q13085); assay: In vitro ACC1 inhibition assay (ADP-Glo); type: biochemical; conditions: read-out: ACC1
Experimental: An exemplary procedure for the in vitro ACC inhibition assay, which can be used to determine the inhibitory action of compounds of the invention toward either ACC1 or ACC2, follows. The ADP-Glo™ Kinase Assay kit from Promega was used. The ADP-Glo™ Kinase Assay is a luminescent ADP detection assay to measure enzymatic activity by quantifying the amount of ADP produced during an enzyme reaction. The assay is performed in two steps; first, after the enzyme reaction, an equal volume of ADP-Glo™ Reagent is added to terminate the reaction and deplete the remaining ATP. Second, the Kinase Detection Reagent is added to simultaneously convert ADP to ATP and allow the newly synthesized ATP to be measured using a luciferase/luciferin reaction. Luminescence can be correlated to ADP concentrations by using an ATP-to-ADP conversion curve. The detailed procedure is as follows. 50 μL of the compound being tested (600 uM in DMSO) was added to a 384-well dilution plate. The compound was diluted 1:3 in succession in DMSO for each row for 11 wells. 0.5 μL ACC2 working solution was added to 384-well white Optiplate assay plate. 0.5 μL diluted compound solution in each column from step 2 to assay plate, each row containing 2 replicates. […] The plates were incubated at room temperature for 15 minutes. 5 μL substrate working solution was added to each well to initiate reaction. […] Plates were incubated at room temperature for 60 minutes. 10 μL ADP glo reagent was added. Plates were incubated at room temperature for 40 minutes. 20 μL kinase detection reagent was added.
Data for each concentration, as well as the positive and negative controls were averaged, and the standard deviation calculated. Percent inhibition was calculated by the formula: 100× (average negative control−compound)/(average negative control−average positive control). The IC50 for each compound was calculated by fitting the data with a non-linear regression equation: Y=Bottom+(Top-Bottom)/(1+10^((Log IC50−X)*HillSlope)), where X is the log of compound concentration and Y is percent inhibition.
The compound numbers correspond to the compound numbers in Table 1.

ACC2, sequence (O00763 whole entry, species assumed): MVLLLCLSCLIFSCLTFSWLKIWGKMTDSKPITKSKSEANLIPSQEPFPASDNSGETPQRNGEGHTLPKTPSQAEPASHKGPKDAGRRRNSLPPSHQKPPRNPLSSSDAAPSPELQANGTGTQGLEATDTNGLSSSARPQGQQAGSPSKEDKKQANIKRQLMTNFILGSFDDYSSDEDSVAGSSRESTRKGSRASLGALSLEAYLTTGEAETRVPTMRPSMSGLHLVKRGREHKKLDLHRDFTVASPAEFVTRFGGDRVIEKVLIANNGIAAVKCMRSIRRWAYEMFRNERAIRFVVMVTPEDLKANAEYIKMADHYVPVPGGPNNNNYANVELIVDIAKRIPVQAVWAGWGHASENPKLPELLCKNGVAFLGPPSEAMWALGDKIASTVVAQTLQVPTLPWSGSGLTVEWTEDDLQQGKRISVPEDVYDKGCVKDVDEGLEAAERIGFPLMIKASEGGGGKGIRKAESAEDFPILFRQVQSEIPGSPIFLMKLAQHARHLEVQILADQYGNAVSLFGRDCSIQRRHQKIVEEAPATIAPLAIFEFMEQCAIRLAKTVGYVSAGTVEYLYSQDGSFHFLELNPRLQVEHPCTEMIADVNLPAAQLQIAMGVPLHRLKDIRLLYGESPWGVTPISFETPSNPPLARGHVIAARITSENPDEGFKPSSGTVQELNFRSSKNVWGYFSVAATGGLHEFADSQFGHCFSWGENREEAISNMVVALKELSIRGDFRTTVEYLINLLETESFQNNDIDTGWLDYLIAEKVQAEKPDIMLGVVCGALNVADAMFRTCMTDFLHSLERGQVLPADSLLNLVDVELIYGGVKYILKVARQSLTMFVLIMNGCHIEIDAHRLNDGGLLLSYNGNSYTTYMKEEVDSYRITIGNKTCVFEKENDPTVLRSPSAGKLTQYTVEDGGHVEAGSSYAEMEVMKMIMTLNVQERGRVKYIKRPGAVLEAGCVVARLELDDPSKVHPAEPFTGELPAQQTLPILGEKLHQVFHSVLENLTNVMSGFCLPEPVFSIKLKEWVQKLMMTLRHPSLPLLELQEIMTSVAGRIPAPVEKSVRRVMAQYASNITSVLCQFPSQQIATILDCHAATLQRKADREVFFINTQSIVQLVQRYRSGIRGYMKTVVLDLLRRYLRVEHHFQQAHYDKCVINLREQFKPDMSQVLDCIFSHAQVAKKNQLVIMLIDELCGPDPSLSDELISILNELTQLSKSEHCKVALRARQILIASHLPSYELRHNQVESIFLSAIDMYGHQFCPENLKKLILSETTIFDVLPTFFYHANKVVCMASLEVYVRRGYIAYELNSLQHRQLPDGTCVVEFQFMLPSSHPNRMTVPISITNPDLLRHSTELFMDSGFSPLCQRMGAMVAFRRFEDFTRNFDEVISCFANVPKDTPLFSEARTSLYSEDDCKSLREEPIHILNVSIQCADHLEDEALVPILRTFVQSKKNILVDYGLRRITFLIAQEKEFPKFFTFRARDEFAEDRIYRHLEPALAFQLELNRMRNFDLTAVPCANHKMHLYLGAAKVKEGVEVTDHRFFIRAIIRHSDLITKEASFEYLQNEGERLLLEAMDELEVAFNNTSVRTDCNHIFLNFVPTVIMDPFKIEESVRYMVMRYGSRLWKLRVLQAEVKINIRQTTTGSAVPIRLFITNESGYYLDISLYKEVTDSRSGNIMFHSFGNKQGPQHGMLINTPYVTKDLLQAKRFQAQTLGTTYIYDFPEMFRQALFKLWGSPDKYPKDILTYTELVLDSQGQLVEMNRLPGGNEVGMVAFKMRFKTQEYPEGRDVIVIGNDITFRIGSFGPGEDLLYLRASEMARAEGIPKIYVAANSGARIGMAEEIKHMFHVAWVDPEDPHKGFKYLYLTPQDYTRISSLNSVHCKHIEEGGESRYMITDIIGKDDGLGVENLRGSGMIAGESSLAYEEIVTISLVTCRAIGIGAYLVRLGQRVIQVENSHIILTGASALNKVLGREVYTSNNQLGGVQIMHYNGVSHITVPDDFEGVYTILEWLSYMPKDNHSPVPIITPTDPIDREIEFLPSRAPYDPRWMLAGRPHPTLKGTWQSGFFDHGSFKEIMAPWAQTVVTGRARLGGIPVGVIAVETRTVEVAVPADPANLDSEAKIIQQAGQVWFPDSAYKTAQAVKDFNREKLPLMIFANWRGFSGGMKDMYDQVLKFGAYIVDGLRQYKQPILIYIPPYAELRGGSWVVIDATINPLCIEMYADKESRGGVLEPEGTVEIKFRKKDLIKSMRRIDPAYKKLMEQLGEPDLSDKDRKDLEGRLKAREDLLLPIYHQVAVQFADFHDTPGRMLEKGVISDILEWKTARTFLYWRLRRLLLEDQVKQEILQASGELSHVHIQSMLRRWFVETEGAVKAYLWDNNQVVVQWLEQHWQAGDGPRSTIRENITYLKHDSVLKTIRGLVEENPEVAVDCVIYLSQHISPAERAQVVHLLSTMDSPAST

Row | Structure (SMILES) | IC50 [1] [nM] | IC50 [2] [nM]
1 | CCc1ccccc1[C@H](Cn1c(=O)n(C(C)(C)C(=O)O)c(=O)c2c(C)c(-c3ncco3)sc21)O[C@H]1CC[C@H](O)CC1 [I-244, 2-(1-((R)-2-(2-ethylphenyl)-2-(((1r,4R)-4-hydroxycyclohexyl)oxy)ethyl)-5-methyl-6-(oxazol-2-yl)-2,4-dioxo-1,2-dihydrothieno[2,3-d]pyrimidin-3(4H)-yl)-2-methylpropanoic acid] | < 100 | < 100
2 | COc1ccccc1[C@H](Cn1c(=O)n(CC(N)=O)c(=O)c2c(C)c(-c3ncco3)sc21)OC1CCOCC1 [I-288] | < 100 | < 100
3 | Cc1c(-c2ncco2)sc2c1c(=O)n(C(C)(C)C(=O)O)c(=O)n2CC(Oc1ccccc1)c1ccccc1 (stereo in doubt) [I-143, 2-methyl-2-[5-methyl-6-(1,3-oxazol-2-yl)-2,4-dioxo-1-[(2S)-2-phenoxy-2-phenylethyl]-1H,2H,3H,4H-thieno[2,3-d]pyrimidin-3-yl]propanoic acid] | < 1000 | < 1000
4 | Cc1c(-c2ncco2)sc2c1c(=O)n(C(C)(C)C(=O)O)c(=O)n2C[C@H](OC1CCOCC1)c1ccccc1OC(F)F [I-264, 2-[1-[(2R)-2-[2-(difluoromethoxy)phenyl]-2-(oxan-4-yloxy)ethyl]-5-methyl-6-(1,3-oxazol-2-yl)-2,4-dioxo-1H,2H,3H,4H-thieno[2,3-d]pyrimidin-3-yl]-2-methylpropanoic acid] | < 100 | < 100
5 | COc1ccccc1[C@H](Cn1c(=O)n(C(C)(C)C(=O)O)c(=O)c2c(C)c(-c3ncco3)sc21)OCC1CCOCC1 [I-259, 2-[1-[(2R)-2-(2-methoxyphenyl)-2-(oxan-4-ylmethoxy)ethyl]-5-methyl-6-(1,3-oxazol-2-yl)-2,4-dioxo-1H,2H,3H,4H-thieno[2,3-d]pyrimidin-3-yl]-2-methylpropanoic acid] | < 100 | < 100
6 | COc1ccccc1[C@H](Cn1c(=O)n(C(C)(C)C(=O)N2CCCCC2)c(=O)c2c(C)c(-c3ncco3)sc21)OC(C)C [I-239, 1-[(2R)-2-(2-methoxyphenyl)-2-(propan-2-yloxy)ethyl]-5-methyl-3-[2-methyl-1-oxo-1-(piperidin-1-yl)propan-2-yl]-6-(1,3-oxazol-2-yl)-1H,2H,3H,4H-thieno[2,3-d]pyrimidine-2,4-dione] | < 100 | < 100
7 | COc1ccccc1[C@H](Cn1c(=O)n(C(C)(C)C(=O)N2CCC2)c(=O)c2c(C)c(-c3ncco3)sc21)OC(C)C [I-237, 3-[1-(azetidin-1-yl)-2-methyl-1-oxopropan-2-yl]-1-[(2R)-2-(2-methoxyphenyl)-2-(propan-2-yloxy)ethyl]-5-methyl-6-(1,3-oxazol-2-yl)-1H,2H,3H,4H-thieno[2,3-d]pyrimidine-2,4-dione] | < 100 | < 100
8 | COc1ccccc1[C@H](Cn1c(=O)n(C(C)(C)CO)c(=O)c2c(C)c(-c3ncco3)sc21)OC1CCOCC1 [I-290, 3-(1-hydroxy-2-methylpropan-2-yl)-1-[(2R)-2-(2-methoxyphenyl)-2-(oxan-4-yloxy)ethyl]-5-methyl-6-(1,3-oxazol-2-yl)-1H,2H,3H,4H-thieno[2,3-d]pyrimidine-2,4-dione] | < 100 | < 100
9 | CCc1ccccc1[C@H](Cn1c(=O)n(C(C)(C)C(=O)O)c(=O)c2c(C)c(-c3ncco3)sc21)OC(C)C [I-180, 2-[1-[(2R)-2-(2-ethylphenyl)-2-(propan-2-yloxy)ethyl]-5-methyl-6-(1,3-oxazol-2-yl)-2,4-dioxo-1H,2H,3H,4H-thieno[2,3-d]pyrimidin-3-yl]-2-methylpropanoic acid] | < 100 | < 100
10 | Cc1c(-c2ncco2)sc2c1c(=O)n(C(C)(C)C(=O)O)c(=O)n2C[C@H](OC1CCCCC1)c1ccccc1 [I-140, 2-[1-[(2R)-2-(cyclohexyloxy)-2-phenylethyl]-5-methyl-6-(1,3-oxazol-2-yl)-2,4-dioxo-1H,2H,3H,4H-thieno[2,3-d]pyrimidin-3-yl]-2-methylpropanoic acid] | < 1000 | < 100
11 | Cc1c(-c2ncco2)sc2c1c(=O)n(C(C)(C)C(=O)O)c(=O)n2C[C@H](OC(C)C)c1ccccc1 [I-119, 2-methyl-2-[5-methyl-6-(1,3-oxazol-2-yl)-2,4-doxo-1-[(2R)-2-phenyl-2-(propan-2-yloxy)ethyl]-1H,2H,3H,4H-thieno[2,3-d]pyrimidin-3-yl]propanoic acid] | < 1000 | < 100
12 | Cc1c(-c2ncco2)sc2c1c(=O)n(C(C)(C)C(=O)O)c(=O)n2C[C@H](OC1CCOCC1)c1ccccc1OC(C)C [I-291, 2-methyl-2-[5-methyl-1-[(2R)-2-(oxan-4-yloxy)-2-[2-(propan-2-yloxy)phenyl]ethyl]-6-(1,3-oxazol-2-yl)-2,4-dioxo-1H,2H,3H,4H-thieno[2,3-d]pyrimidin-3-yl]propanoic acid] | < 100 | < 100

Second part, the compound after the results:

Row | IC50 [1] [nM] | IC50 [2] [nM] | Structure (SMILES)
13 | < 5000 | < 5000 | CCOC(=O)c1sc2c(c1C)c(=O)n(Cc1nnn[nH]1)c(=O)n2CCc1ccccc1 [I-45, ethyl 5-methyl-2,4-dioxo-1-(2-phenylethyl)-3-(1H-1,2,3,4-tetrazol-5-ylmethyl)-1H,2H,3H,4H-thieno[2,3-d]pyrimidine-6-carboxylate]
14 | < 1000 | < 100 | CCOC(=O)c1sc2c(c1C)c(=O)n(C(C)(C)C(=O)O)c(=O)n2CCc1ccccc1CC [I-100, 2-[6-(ethoxycarbonyl)-1-[2-(2-ethylphenyl)ethyl]-5-methyl-2,4-dioxo-1H,2H,3H,4H-thieno[2,3-d]pyrimidin-3-yl]-2-methylpropanoic acid]
15 | < 1000 | < 1000 | CCOC(=O)c1sc2c(c1C)c(=O)n(C(C)(C)C(N)=O)c(=O)n2C[C@H](OC(C)C)c1ccccc1 [I-115, ethyl 3-(1-carbamoyl-1-methylethyl)-5-methyl-2,4-dioxo-1-[(2R)-2-phenyl-2-(propan-2-yloxy)ethyl]-1H,2H,3H,4H-thieno[2,3-d]pyrimidine-6-carboxylate]
16 | < 5000 | 5000 to 20000 | CCOC(=O)c1sc2c(c1C)c(=O)n(CCO)c(=O)n2CCc1ccccc1Cl [I-20, ethyl 1-[2-(2-chlorophenyl)ethyl]-3-(2-hydroxyethyl)-5-methyl-2,4-dioxo-1H,2H,3H,4H-thieno[2,3-d]pyrimidine-6-carboxylate]
17 | 5000 to 20000 | < 5000 | CCOC(=O)c1sc2c(c1C)c(=O)n(CCO)c(=O)n2CCc1ccccc1 [I-1]
18 | < 5000 | < 5000 | CCOC(=O)c1sc2c(c1C)c(=O)n(CCC(N)=O)c(=O)n2CCc1ccccc1 [I-55, ethyl 3-(2-carbamoylethyl)-5-methyl-2,4-dioxo-1-(2-phenylethyl)-1H,2H,3H,4H-thieno[2,3-d]pyrimidine-6-carboxylate]
19 | < 1000 | < 1000 | CCc1ccccc1CCn1c(=O)n(C(C)(C)C(N)=O)c(=O)c2c(C)c(-c3ncco3)sc21 [I-134, 2-[1-[2-(2-ethylphenyl)ethyl]-5-methyl-6-(1,3-oxazol-2-yl)-2,4-dioxo-1H,2H,3H,4H-thieno[2,3-d]pyrimidin-3-yl]-2-methylpropanamide]
20 | < 1000 | < 100 | CCOC(=O)c1sc2c(c1C)c(=O)n(C(C)(C)C(=O)O)c(=O)n2C[C@H](OC(C)C)c1ccccc1 [I-108, 2-[6-(ethoxycarbonyl)-5-methyl-2,4-dioxo-1-[(2R)-2-phenyl-2-(propan-2-yloxy)ethyl]-1H,2H,3H,4H-thieno[2,3-d]pyrimidin-3-yl]-2-methylpropanoic acid]
21 | < 1000 | < 100 | CCOC(=O)c1sc2c(c1C)c(=O)n(C(C)(C)C(=O)O)c(=O)n2C[C@H](O[C@H](C)CC)c1ccccc1 [I-130, 2-[1-[(2R)-2-[(2R)-butan-2-yloxy]-2-phenylethyl]-6-(ethoxycarbonyl)-5-methyl-2,4-dioxo-1H,2H,3H,4H-thieno[2,3-d]pyrimidin-3-yl]-2-methylpropanoic acid]
22 | < 1000 | < 100 | CCc1ccccc1CCn1c(=O)n(C(C)(C)C(=O)O)c(=O)c2c(C)c(-c3ncco3)sc21 [I-133, 2-[1-[2-(2-ethylphenyl)ethyl]-5-methyl-6-(1,3-oxazol-2-yl)-2,4-dioxo-1H,2H,3H,4H-thieno[2,3-d]pyrimidin-3-yl]-2-methylpropanoic acid]
23 | < 1000 | < 1000 | CCOC(=O)c1sc2c(c1C)c(=O)n(C(C)(C)C(=O)O)c(=O)n2CCc1ccccc1OC [I-93, 2-[6-(ethoxycarbonyl)-1-[2-(2-methoxyphenyl)ethyl]-5-methyl-2,4-dioxo-1H,2H,3H,4H-thieno[2,3-d]pyrimidin-3-yl]-2-methylpropanoic acid]
